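Cultured in 96-well plates, cells were exposed to test compound for 48 hours across five concentrations. TGI marks complete inhibition of growth.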
Tests used:
Assay in all cases: inhibition of tumour cell growth, NCI panel, 48 h
NCI-H522 lung = system: NCI-H522 lung
EKVX NSCLC = system: EKVX NSCLC
NCI-H226 lung = system: NCI-H226 lung
OVCAR-4 ovarian = system: OVCAR-4 ovarian
UO-31 renal = system: UO-31 renal
786-0 renal = system: 786-0 renal
U251 CNS = system: U251 CNS
IGROV1 ovarian = system: IGROV1 ovarian
COLO 205 colon = system: COLO 205 colon
SR leukemia = system: SR leukemia
K-562 leukemia = system: K-562 leukemia
HOP-92 NSCLC = system: HOP-92 NSCLC
M19-MEL melanoma = system: M19-MEL melanoma
OVCAR-5 ovarian = system: OVCAR-5 ovarian
HCT-116 colon = system: HCT-116 colon
SF-295 CNS = system: SF-295 CNS
RXF 393 renal = system: RXF 393 renal
SK-MEL-2 melanoma = system: SK-MEL-2 melanoma
LOX IMVI melanoma = system: LOX IMVI melanoma
SN12C renal = system: SN12C renal
MALME-3M melanoma = system: MALME-3M melanoma
NCI-H23 lung = system: NCI-H23 lung
HOP-62 NSCLC = system: HOP-62 NSCLC
OVCAR-8 ovarian = system: OVCAR-8 ovarian
KM20L2 colon = system: KM20L2 colon
SNB-19 CNS = system: SNB-19 CNS
SF-268 CNS = system: SF-268 CNS
OVCAR-3 ovarian = system: OVCAR-3 ovarian
SNB-78 CNS = system: SNB-78 CNS
XF 498 CNS = system: XF 498 CNS
A498 renal = system: A498 renal
TK-10 renal = system: TK-10 renal
SW-620 colon = system: SW-620 colon
MOLT-4 leukemia = system: MOLT-4 leukemia
HCC-2998 colon = system: HCC-2998 colon
HOP-18 NSCLC = system: HOP-18 NSCLC
KM12 colon = system: KM12 colon
RPMI-8226 leukemia = system: RPMI-8226 leukemia
HT29 colon = system: HT29 colon
SNB-75 CNS = system: SNB-75 CNS
DMS 114 small cell lung = system: DMS 114 small cell lung
A549 NSCLC = system: A549 NSCLC
SF-539 CNS = system: SF-539 CNS
ACHN renal = system: ACHN renal
HCT-15 colon = system: HCT-15 colon
DLD-1 colon = system: DLD-1 colon
SK-MEL-28 melanoma = system: SK-MEL-28 melanoma
HL-60(TB) leukemia = system: HL-60(TB) leukemia
NCI-H460 lung = system: NCI-H460 lung
M14 melanoma = system: M14 melanoma
CCRF-CEM leukemia = system: CCRF-CEM leukemia
UACC-257 melanoma = system: UACC-257 melanoma
UACC-62 melanoma = system: UACC-62 melanoma
DMS 273 small cell lung = system: DMS 273 small cell lung
LXFL 529 NSCLC = system: LXFL 529 NSCLC
SK-OV-3 ovarian = system: SK-OV-3 ovarian
RXF-631 renal = system: RXF-631 renal
SK-MEL-5 melanoma = system: SK-MEL-5 melanoma
CAKI-1 renal = system: CAKI-1 renal

Work on `CCOC(=O)C1SC(=Nc2ccc(Cl)cc2)N=C1C` (stereo not drawn) yielded a TGI (NCI-H522 lung) of 33 µM, a TGI (EKVX NSCLC) of 45.2 µM and a TGI (NCI-H226 lung) of 41.9 µM. For the same compound, the TGI (OVCAR-4 ovarian) was 56.1 µM, the TGI (UO-31 renal) was 33.7 µM and the TGI (786-0 renal) was 30.7 µM. For the same compound, the TGI (U251 CNS) was 35.2 µM, the TGI (IGROV1 ovarian) was 40 µM and the TGI (COLO 205 colon) was 32.8 µM. The TGI (SR leukemia) was […], the TGI (K-562 leukemia) was 43.3 µM and the TGI (HOP-92 NSCLC) was 29.6 µM. For the same compound, the TGI (M19-MEL melanoma) was 33 µM, the TGI (OVCAR-5 ovarian) was 39.3 µM and the TGI (HCT-116 colon) was 30.2 µM. For the same compound, the TGI (SF-295 CNS) was 34.9 µM, the TGI (RXF 393 renal) was 36.3 µM and the TGI (SK-MEL-2 melanoma) was 38.5 µM. For the same compound, the TGI (LOX IMVI melanoma) was 32.5 µM, the TGI (SN12C renal) was 31.3 µM and the TGI (MALME-3M melanoma) was 35.9 µM. For the same compound, the TGI (NCI-H23 lung) was 34.9 µM, the TGI (HOP-62 NSCLC) was 36.2 µM and the TGI (OVCAR-8 ovarian) was 43.3 µM. The TGI (KM20L2 colon) was 33.4 µM, the TGI (SNB-19 CNS) was 35 µM and the TGI (SF-268 CNS) was 34 µM. For the same compound, the TGI (OVCAR-3 ovarian) was 47.8 µM, the TGI (SNB-78 CNS) was 89.3 µM and the TGI (XF 498 CNS) was 34.2 µM. For the same compound, the TGI (A498 renal) was 41.3 µM, the TGI (TK-10 renal) was 64.4 µM and the TGI (SW-620 colon) was 35.2 µM. The TGI (MOLT-4 leukemia) was 48.8 µM, the TGI (HCC-2998 colon) was 31.5 µM and the TGI (HOP-18 NSCLC) was 42.5 µM. The TGI (KM12 colon) was 36.1 µM, the TGI (RPMI-8226 leukemia) was 82.3 µM and the TGI (HT29 colon) was 30.8 µM. For the same compound, the TGI (SNB-75 CNS) was 44.7 µM, the TGI (DMS 114 small cell lung) was 81 µM and the TGI (A549 NSCLC) was 38.1 µM. The TGI (SF-539 CNS) was 33 µM, the TGI (ACHN renal) was 49.7 µM and the TGI (HCT-15 colon) was 30 µM. It also gave a TGI (DLD-1 colon) of 28.7 µM, a TGI (SK-MEL-28 melanoma) of 40.9 µM and a TGI (HL-60(TB) leukemia) of 55.9 µM. The TGI (NCI-H460 lung) was 45.1 µM.

`C=C(C)C1C/C=C(/C)CCCC2(CCC3=C(CC(C(=C)C)C/C=C(/C)CCC3)O2)C(=O)C1` (stereo not drawn) gave a TGI (NCI-H522 lung) of over 100 µM, a TGI (EKVX NSCLC) of over 100 µM and a TGI (NCI-H226 lung) of over 100 µM. It also gave a TGI (M14 melanoma) of over 100 µM, a TGI (OVCAR-4 ovarian) of over 100 µM and a TGI (UO-31 renal) of over 100 µM. The TGI (786-0 renal) was over 100 µM, the TGI (U251 CNS) was over 100 µM and the TGI (IGROV1 ovarian) was over 100 µM. The TGI (COLO 205 colon) was over 100 µM, the TGI (SR leukemia) was over 100 µM and the TGI (K-562 leukemia) was over 100 µM. The TGI (HOP-92 NSCLC) was over 100 µM, the TGI (M19-MEL melanoma) was over 100 µM and the TGI (HCT-116 colon) was over 100 µM. The TGI (SF-295 CNS) was over 100 µM, the TGI (RXF 393 renal) was over 100 µM and the TGI (SK-MEL-2 melanoma) was over 100 µM. It also gave a TGI (LOX IMVI melanoma) of over 100 µM, a TGI (SN12C renal) of over 100 µM and a TGI (CCRF-CEM leukemia) of over 100 µM. The TGI (MALME-3M melanoma) was over 100 µM, the TGI (NCI-H23 lung) was over 100 µM and the TGI (HOP-62 NSCLC) was over 100 µM. It also gave a TGI (OVCAR-8 ovarian) of over 100 µM, a TGI (KM20L2 colon) of over 100 µM and a TGI (SNB-19 CNS) of over 100 µM. For the same compound, the TGI (SF-268 CNS) was over 100 µM, the TGI (UACC-257 melanoma) was over 100 µM and the TGI (SNB-78 CNS) was over 100 µM. For the same compound, the TGI (XF 498 CNS) was over 100 µM, the TGI (A498 renal) was over 100 µM and the TGI (UACC-62 melanoma) was over 100 µM. For the same compound, the TGI (TK-10 renal) was over 100 µM, the TGI (SW-620 colon) was over 100 µM and the TGI (DMS 273 small cell lung) was over 100 µM. It also gave a TGI (MOLT-4 leukemia) of over 100 µM, a TGI (HCC-2998 colon) of over 100 µM and a TGI (HOP-18 NSCLC) of over 100 µM. For the same compound, the TGI (KM12 colon) was over 100 µM, the TGI (RPMI-8226 leukemia) was over 100 µM and the TGI (HT29 colon) was over 100 µM. The TGI (SNB-75 CNS) was over 100 µM, the TGI (LXFL 529 NSCLC) was over 100 µM and the TGI (DMS 114 small cell lung) was over 100 µM. It also gave a TGI (A549 NSCLC) of over 100 µM, a TGI (SF-539 CNS) of over 100 µM and a TGI (ACHN renal) of over 100 µM. It also gave a TGI (HCT-15 colon) of over 100 µM, a TGI (SK-OV-3 ovarian) of over 100 µM and a TGI (DLD-1 colon) of over 100 µM. For the same compound, the TGI (SK-MEL-28 melanoma) was over 100 µM, the TGI (HL-60(TB) leukemia) was over 100 µM and the TGI (NCI-H460 lung) was over 100 µM.

Work on `C/C(=N\NC(=O)CC#N)c1c(O)cc(C)oc1=O` yielded a TGI (EKVX NSCLC) of over 100 µM, a TGI (NCI-H226 lung) of over 100 µM and a TGI (M14 melanoma) of over 100 µM. The TGI (OVCAR-4 ovarian) was over 100 µM, the TGI (UO-31 renal) was over 100 µM and the TGI (786-0 renal) was over 100 µM. For the same compound, the TGI (U251 CNS) was over 100 µM, the TGI (IGROV1 ovarian) was over 100 µM and the TGI (SR leukemia) was over 100 µM. For the same compound, the TGI (K-562 leukemia) was over 100 µM, the TGI (RXF-631 renal) was over 100 µM and the TGI (HOP-92 NSCLC) was over 100 µM. The TGI (M19-MEL melanoma) was over 100 µM, the TGI (HCT-116 colon) was over 100 µM and the TGI (SF-295 CNS) was over 100 µM. It also gave a TGI (SK-MEL-2 melanoma) of over 100 µM, a TGI (LOX IMVI melanoma) of over 100 µM and a TGI (SN12C renal) of over 100 µM. For the same compound, the TGI (CCRF-CEM leukemia) was over 100 µM, the TGI (MALME-3M melanoma) was over 100 µM and the TGI (NCI-H23 lung) was over 100 µM. The TGI (HOP-62 NSCLC) was over 100 µM, the TGI (OVCAR-8 ovarian) was over 100 µM and the TGI (KM20L2 colon) was over 100 µM. It also gave a TGI (SNB-19 CNS) of over 100 µM, a TGI (SF-268 CNS) of over 100 µM and a TGI (UACC-257 melanoma) of over 100 µM. The TGI (SNB-78 CNS) was over 100 µM, the TGI (A498 renal) was over 100 µM and the TGI (UACC-62 melanoma) was over 100 µM. The TGI (TK-10 renal) was over 100 µM, the TGI (SW-620 colon) was over 100 µM and the TGI (MOLT-4 leukemia) was over 100 µM. The TGI (HCC-2998 colon) was over 100 µM, the TGI (HOP-18 NSCLC) was over 100 µM and the TGI (KM12 colon) was over 100 µM. For the same compound, the TGI (HT29 colon) was over 100 µM, the TGI (SNB-75 CNS) was over 100 µM and the TGI (LXFL 529 NSCLC) was over 100 µM. It also gave a TGI (A549 NSCLC) of over 100 µM, a TGI (SF-539 CNS) of over 100 µM and a TGI (SK-MEL-5 melanoma) of over 100 µM. It also gave a TGI (ACHN renal) of over 100 µM, a TGI (HCT-15 colon) of over 100 µM and a TGI (CAKI-1 renal) of over 100 µM. The TGI (SK-OV-3 ovarian) was over 100 µM, the TGI (DLD-1 colon) was over 100 µM and the TGI (SK-MEL-28 melanoma) was over 100 µM. It also gave a TGI (HL-60(TB) leukemia) of over 100 µM and a TGI (NCI-H460 lung) of over 100 µM.

From PubChem BioAssay (NCI)
